The source of these data is patent US12590066B2, “Fused-heterocyclyl-carbonohydrazonoyl dicyanide compounds and use thereof” (KOREA INSTITUTE OF SCIENCE AND TECHNOLOGY, priority 2020, dated 2026).

The subject of one data set is Tau-BiFC cells. As to the kind of experiment: Cell viability (stained nuclei count) in Tau-BiFC cells. In kind it is cell-based. Conditions: 10 μM compound, 48 hours; Forskolin-only group = 100% cell viability. As to the method:
In order to select novel tau protein aggregation-inhibiting substances, tau-BiFC cell model, in which formation of tau oligomers in living cells is easily observed, was used. Tau-BiFC cells were aliquoted into a 384-well plate. On the next day, the cells were treated with each of the compounds prepared according to Examples 1 to 57 at concentrations of 1 μM, 3 μM, and 10 μM, together with Forskolin (at a treatment concentration of 30 μM), which is a compound inducing tau protein aggregation by activating tau phosphorylase PKA. After 48 hours, nuclei in the cells were stained using Hoechst (at a treatment concentration of 2 μg/mL), and BiFC fluorescence intensity was automatically measured using Operetta (PerkinElmer) to count stained nuclei in each well out of the entire well plate. The group treated only with Forskolin, which induces tau protein aggregation, was set to a reference point of a 100% tau protein-aggregated state, and the effects of the compounds were confirmed using the equation “BiFC fluorescence intensity due to compound synthesized according to embodiment of present invention/(fluorescence intensity of control group treated only with Forskolin inducing tau protein aggregation−fluorescence intensity of untreated control group)×100”. Furthermore, the degree of cytotoxicity induced by the newly synthesized compound was also measured based on the 100% cell viability of the group treated only with Forskolin as a reference, and the cytotoxicity value of each compound was calculated using the equation “(number of stained nuclei in group treated with compound/number of stained nuclei in group treated with Forskolin)×100”. Based on the treatment results, substances inhibiting intracellular tau protein aggregation were selected from a series of candidate groups showing a tau protein aggregation inhibition rate of 70% or more and cell viability of 100% at a compound treatment concentration of 10 μM or more. […]

A further data set concerns the target T1, tau protein (Homo sapiens, UniProt P10636).
T1 construct: BiFC fluorescent-protein fragments (type and halves not specified); expressed in transfected cells
Description: Tau-BiFC cell model, inhibition of Forskolin-induced tau protein aggregation. Conditions: Forskolin 30 μM, 48 hours; for Tau BiFC in cells Response (% @10 μM): 10 μM compound, Forskolin-only group = 100% tau protein-aggregated state; for IC50: tau-BiFC cells. In kind it is cell-based. On the procedure:
In order to select novel tau protein aggregation-inhibiting substances, tau-BiFC cell model, in which formation of tau oligomers in living cells is easily observed, was used. Tau-BiFC cells were aliquoted into a 384-well plate. On the next day, the cells were treated with each of the compounds prepared according to Examples 1 to 57 at concentrations of 1 μM, 3 μM, and 10 μM, together with Forskolin (at a treatment concentration of 30 μM), which is a compound inducing tau protein aggregation by activating tau phosphorylase PKA. After 48 hours, nuclei in the cells were stained using Hoechst (at a treatment concentration of 2 μg/mL), and BiFC fluorescence intensity was automatically measured using Operetta (PerkinElmer) to count stained nuclei in each well out of the entire well plate. The group treated only with Forskolin, which induces tau protein aggregation, was set to a reference point of a 100% tau protein-aggregated state, and the effects of the compounds were confirmed using the equation “BiFC fluorescence intensity due to compound synthesized according to embodiment of present invention/(fluorescence intensity of control group treated only with Forskolin inducing tau protein aggregation−fluorescence intensity of untreated control group)×100”. Furthermore, the degree of cytotoxicity induced by the newly synthesized compound was also measured based on the 100% cell viability of the group treated only with Forskolin as a reference, and the cytotoxicity value of each compound was calculated using the equation “(number of stained nuclei in group treated with compound/number of stained nuclei in group treated with Forskolin)×100”. Based on the treatment results, substances inhibiting intracellular tau protein aggregation were selected from a series of candidate groups showing a tau protein aggregation inhibition rate of 70% or more and cell viability of 100% at a compound treatment concentration of 10 μM or more.
In order to evaluate dose-dependent tau protein aggregation inhibition effects of the compounds selected according to Experimental Example 1 on tau protein aggregation, tau-BiFC cells were treated with the selected compounds at concentrations of 0.03 μM, […], 0.3 μM, 1 μM, 3 μM, 10 μM, and 30 μM, respectively, together with Forskolin (at a treatment concentration of 30 μM), which is a tau protein aggregation-inducing substance. After 48 hours, tau protein aggregation reaction and degrees of cytotoxicity were analyzed by observing images of the cells. IC50 and toxicity of the compounds were analyzed by way of nonlinear regression analysis of prism software (Graph Pad).

SMILES strings stand for the structures.

T1 sequence (P10636 1-441 isoform P10636-8): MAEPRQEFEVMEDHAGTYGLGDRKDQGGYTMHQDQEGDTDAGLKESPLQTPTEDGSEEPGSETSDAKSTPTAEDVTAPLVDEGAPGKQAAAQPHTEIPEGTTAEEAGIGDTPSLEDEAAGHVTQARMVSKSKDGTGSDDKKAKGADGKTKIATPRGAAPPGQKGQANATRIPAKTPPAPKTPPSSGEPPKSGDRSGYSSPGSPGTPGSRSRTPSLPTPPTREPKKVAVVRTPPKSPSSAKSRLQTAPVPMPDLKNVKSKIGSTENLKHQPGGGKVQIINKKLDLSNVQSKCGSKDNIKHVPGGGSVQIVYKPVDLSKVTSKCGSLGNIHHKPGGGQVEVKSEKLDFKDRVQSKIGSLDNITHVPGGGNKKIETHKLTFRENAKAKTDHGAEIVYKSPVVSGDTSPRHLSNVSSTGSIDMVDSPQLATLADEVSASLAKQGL

Regarding `CCn1c(=O)n(C)c2ncc(NN=C(C#N)C#N)cc21` [Compound 44, (1-ethyl-3-methyl-2-oxo-2,3-dihydro-1H-imidazo[4,5-b]pyridin-6-yl)carbonohydrazonoyl dicyanide], the “Cell viability (% @10 μM)” value with Tau-BiFC cells stood at 138%. Also, the “Tau BiFC in cells Response (% @10 μM)” value on tau protein is given as 10%.

Take `COc1cc2c(cc1NN=C(C#N)C#N)n(C)c(=O)n2C` [Compound 32, (6-methoxy-1,3-dimethyl-2-oxo-2,3-dihydro-1H-benzo[d]imidazol-5-yl)carbonohydrazonoyl dicyanide]: the “Cell viability (% @10 μM)” value with Tau-BiFC cells is 132%. Besides, the “Tau BiFC in cells Response (% @10 μM)” value on tau protein came out at 38%.

As to `N#CC(C#N)=NNc1ccc2oc(=O)n(C(F)F)c2c1` [Compound 30, (3-(difluoromethyl)-2-oxo-2,3-dihydrobenzo[d]oxazol-5-yl)carbonohydrazonoyl dicyanide], the “Cell viability (% @10 μM)” value in the data set on Tau-BiFC cells is 127%. In addition, the “Tau BiFC in cells Response (% @10 μM)” value on tau protein turned out to be 36%.

In the case of `CCn1c(=O)n(C2CC2)c2ncc(NN=C(C#N)C#N)cc21` [Compound 52, (3-cyclopropyl-1-ethyl-2-oxo-2,3-dihydro-1H-imidazo[4,5-b]pyridin-6-yl)carbonohydrazonoyl dicyanide], the “Cell viability (% @10 μM)” value with Tau-BiFC cells is recorded as 133%. Also, at tau protein, the “Tau BiFC in cells Response (% @10 μM)” value is recorded as −30% and half-maximal inhibition (IC50) required 200 nM.

Turning to `CCn1c(=O)n(C(F)F)c2cc(NN=C(C#N)C#N)cnc21` [Compound 50, (1-(difluoromethyl)-3-ethyl-2-oxo-2,3-dihydro-1H-imidazo[4,5-b]pyridin-6-yl)carbonohydrazonoyl dicyanide], the “Cell viability (% @10 μM)” value in the data set on Tau-BiFC cells turned out to be 119%. Further, the “Tau BiFC in cells Response (% @10 μM)” value at tau protein is listed as 2%.

Take `Cc1cc(=O)[nH]c2ccc(NN=C(C#N)C#N)cc12` [Compound 26, (4-methyl-2-oxo-1,2-dihydroquinolin-6-yl)carbonohydrazonoyl dicyanide]: the “Cell viability (% @10 μM)” value in the data set with Tau-BiFC cells came out at 120%. At tau protein, the “Tau BiFC in cells Response (% @10 μM)” value was −5% and half-maximal inhibition (IC50) required 770 nM.

In the case of `N#CC(C#N)=NNc1ccc2[nH]c(=O)ccc2c1` [Compound 8, (2-oxo-1,2-dihydroquinolin-6-yl)carbonohydrazonoyl dicyanide], the “Cell viability (% @10 μM)” value in the data set with Tau-BiFC cells is listed as 152.5%. In addition, at tau protein, the “Tau BiFC in cells Response (% @10 μM)” value is 0% and the IC50 was 430 nM.

For the compound `Cn1c(=O)n(C(F)F)c2cc(NN=C(C#N)C#N)cnc21` [Compound 46, (1-(difluoromethyl)-3-methyl-2-oxo-2,3-dihydro-1H-imidazo[4,5-b]pyridin-6-yl)carbonohydrazonoyl dicyanide], the “Cell viability (% @10 μM)” value with Tau-BiFC cells was 131%. In addition, at tau protein, the “Tau BiFC in cells Response (% @10 μM)” value is 23%.

Take `N#CC(C#N)=NNc1ccc2cc[nH]c(=O)c2c1` [Compound 1, (1-oxo-1,2-dihydroisoquinolin-7-yl)carbonohydrazonoyl dicyanide]: the “Cell viability (% @10 μM)” value in the data set on Tau-BiFC cells was determined as 152.9%. On tau protein, the “Tau BiFC in cells Response (% @10 μM)” value is recorded as 0% and the midpoint of inhibition, the IC50, lay at 130 nM.

For `CC(C)n1c(=O)n(C)c2ncc(NN=C(C#N)C#N)cc21` [Compound 45, (1-isopropyl-3-methyl-2-oxo-2,3-dihydro-1H-imidazo[4,5-b]pyridin-6-yl)carbonohydrazonoyl dicyanide], the “Cell viability (% @10 μM)” value with Tau-BiFC cells is listed as 113%. Further, at tau protein, the “Tau BiFC in cells Response (% @10 μM)” value was −24% and the midpoint of inhibition, the IC50, lay at 200 nM.

For the compound `CC(C)n1c(=O)n(C)c2cc(NN=C(C#N)C#N)cnc21` [Compound 54, (3-isopropyl-1-methyl-2-oxo-2,3-dihydro-1H-imidazo[4,5-b]pyridin-6-yl)carbonohydrazonoyl dicyanide], in the data set with Tau-BiFC cells, the “Cell viability (% @10 μM)” value was determined as 118%. On tau protein, the “Tau BiFC in cells Response (% @10 μM)” value was −38% and the concentration for half-maximal inhibition (IC50) was 300 nM.

On to `Cn1c(=O)n(C)c2cc(NN=C(C#N)C#N)c(F)cc21` [Compound 9, (6-fluoro-1,3-dimethyl-2-oxo-2,3-dihydro-1H-benzo[d]imidazol-5-yl)carbonohydrazonoyl dicyanide], for which the “Cell viability (% @10 μM)” value with Tau-BiFC cells is 155.3%. Besides, on tau protein, the “Tau BiFC in cells Response (% @10 μM)” value is recorded as 0% and the concentration for half-maximal inhibition (IC50) was found to be 170 nM.

Take `Cn1c(=O)oc2ccc(NN=C(C#N)C#N)cc21` [Compound 28, (3-methyl-2-oxo-2,3-dihydrobenzo[d]oxazol-5-yl)carbonohydrazonoyl dicyanide]: in the data set with Tau-BiFC cells, the “Cell viability (% @10 μM)” value was 134%. On tau protein, the “Tau BiFC in cells Response (% @10 μM)” value is 13%.

In the case of `Cn1c(=O)n(C2CC2)c2ncc(NN=C(C#N)C#N)cc21` [Compound 51, (3-cyclopropyl-1-methyl-2-oxo-2,3-dihydro-1H-imidazo[4,5-b]pyridin-6-yl)carbonohydrazonoyl dicyanide], the “Cell viability (% @10 μM)” value in the data set with Tau-BiFC cells is given as 137%. For the same compound, at tau protein, the “Tau BiFC in cells Response (% @10 μM)” value was −11% and the IC50 stood at 660 nM.

Turning to `Cn1c(=O)n(-c2ccccc2)c2cc(NN=C(C#N)C#N)cnc21` [Compound 47, (3-methyl-2-oxo-1-phenyl-2,3-dihydro-1H-imidazo[4,5-b]pyridin-6-yl)carbonohydrazonoyl dicyanide], the “Cell viability (% @10 μM)” value with Tau-BiFC cells worked out at 117%. Also, the “Tau BiFC in cells Response (% @10 μM)” value at tau protein is on record as 13%.

Turning to `Cc1cc2c(cc1NN=C(C#N)C#N)n(C)c(=O)n2C` [Compound 31, (1,3,6-trimethyl-2-oxo-2,3-dihydro-1H-benzo[d]imidazol-5-yl)carbonohydrazonoyl dicyanide], in the data set with Tau-BiFC cells, the “Cell viability (% @10 μM)” value is on record as 119%. On tau protein, the “Tau BiFC in cells Response (% @10 μM)” value was found to be 47%.

As for `CCn1c(=O)n(C2CC2)c2ccc(NN=C(C#N)C#N)cc21` [Compound 41, (1-cyclopropyl-3-ethyl-2-oxo-2,3-dihydro-1H-benzo[d]imidazol-5-yl)carbonohydrazonoyl dicyanide], in the data set on Tau-BiFC cells, the “Cell viability (% @10 μM)” value is given as 112%. In addition, on tau protein, the “Tau BiFC in cells Response (% @10 μM)” value was −54% and the IC50 stood at 20 nM.

`CCn1c(=O)n(C(F)F)c2cc(NN=C(C#N)C#N)ccc21` [Compound 39, (3-(difluoromethyl)-1-ethyl-2-oxo-2,3-dihydro-1H-benzo[d]imidazol-5-yl)carbonohydrazonoyl dicyanide]: the “Cell viability (% @10 μM)” value with Tau-BiFC cells turned out to be 106%. In addition, at tau protein, the “Tau BiFC in cells Response (% @10 μM)” value is listed as −45% and the IC50 came to 10 nM.

Consider `Cn1c(=O)n(C2CC2)c2ccc(NN=C(C#N)C#N)cc21` [Compound 40, (1-cyclopropyl-3-methyl-2-oxo-2,3-dihydro-1H-benzo[d]imidazol-5-yl)carbonohydrazonoyl dicyanide], for which the “Cell viability (% @10 μM)” value in the data set on Tau-BiFC cells amounted to 122%. Moreover, at tau protein, the “Tau BiFC in cells Response (% @10 μM)” value is −38% and half-maximal inhibition (IC50) required 30 nM.

In the case of `CCn1c(=O)n(C(C)C)c2cc(NN=C(C#N)C#N)cnc21` [Compound 49, (3-ethyl-1-isopropyl-2-oxo-2,3-dihydro-1H-imidazo[4,5-b]pyridin-6-yl)carbonohydrazonoyl dicyanide], the “Cell viability (% @10 μM)” value in the data set on Tau-BiFC cells was determined as 139%. In addition, at tau protein, the “Tau BiFC in cells Response (% @10 μM)” value is on record as −34% and half-maximal inhibition (IC50) was put at 50 nM.

Consider `Cn1c(=O)ccc2cc(NN=C(C#N)C#N)ccc21` [Compound 25, (1-methyl-2-oxo-1,2-dihydroquinolin-6-yl)carbonohydrazonoyl dicyanide], for which the “Cell viability (% @10 μM)” value in the data set with Tau-BiFC cells was 118%. At tau protein, the “Tau BiFC in cells Response (% @10 μM)” value is −16% and half-maximal inhibition (IC50) was put at 20 nM.
